Test results: paper PMC6689897, “Drugging an undruggable pocket on KRAS” (Proceedings of the National Academy of Sciences of the …, 2019)

Key:
[1] = system: 4 BRAF(v600E) cell lines (A375, RKO, Colo 201, SK-MEL-28); assay: 2D and 3D proliferation in BRAF V600E control cell lines; type: cell-based, human; settings: low serum, soft agar, or high serum, adherent conditions
Experimental: (§1) 217 The coordinates and structure factors of the structures have been deposited at the
(§2) 218 Protein Data Bank with the accession codes PDB Code 6GJ5, 6GJ6, 6GJ7, 6GJ8.
(§3) 221 Measurements of various protein–protein interactions were performed using the Alpha
(§4) 222 Screen technology developed by Perkin Elmer. Recombinant RAS proteins (H-, N-, K-
(§5) 223 RAS variants; all KRAS variants are based on KRAS isoform 4B (uniprot id P01116-2);
(§6) 224 KRAS (G12D) 1-169, N-terminal 6His-tag, C-terminal avi-tag was from Xtal
(§7) 225 BioStructures, Inc., KRAS (G12C) 1-169, C-terminal avi-tag, biotinylated, mutations:
(§8) 226 C51S, C80L, C118S, NRAS(wt) 1-172, C-terminal avi-tag, biotinylated; HRAS(wt) 1-
(§9) 227 166, C-terminal avi-tag, biotinylated). Biotinylation was performed in vitro with
228 recombinant BirA biotin-protein ligase as recommended by the manufacturer (Avidity
229 LLC, Aurora, Colorado, USA). Interacting proteins such as SOS1 (564-1049, N-terminal […]
(§10) 231 PI3KA- RBD (160-317, N-term-HIS_GST-tag) were expressed as glutathione S […]
(§11) 245 for 60 min in the dark at room temperature. Single oxygen induced fluorescence was
(§12) 246 measured at an Enspire multimode plate reader (Perkin Elmer) according to the
(§13) 247 manufacturer’s recommendations. Data were analyzed using the GraphPad Prism data […]
275 IgG secondary antibody (Dako #P0448) and detected with ECL (GE Healthcare Life […]

NCI-H358 cells = assay: pAKT quantification (Meso Scale Discovery); type: cell-based, human
Experimental: as §1, §2, §3, §4, §5, §6, §7, §8, §9
228 recombinant BirA biotin-protein ligase as recommended by the manufacturer (Avidity […]
as §10, §11, §12, §13
313 added according to manufacturer’s instructions. Fluorescence intensity was determined
314 using a fluorescence reader (2030 VICTOR X5, Perkin Elmer). […]
319 MAPK pathway signaling (pERK, pAKT quantification) […]

In the case of Cn1cnc(Cn2ccc3ccc(CNCc4[nH]c5ccccc5c4[C@H]4NC(=O)c5ccc(O)cc54)cc32)c1 [Compound 1], the antiproliferative effect [1] is reported as “No antiproliferative effect”, the pAKT levels (NCI-H358 cells; high serum conditions) is reported as “no reduction of pAKT levels” and the pAKT levels (NCI-H358 cells; starved 24 h low serum, 2 h compound, then EGF) is reported as “dose-dependently reduced”.
